Species on record: Rattus norvegicus
Experiment: DrugMatrix - Regimen: Daily Repeat
Format: toxicity, organism-based, Sprague-Dawley
Set-up: regimen Daily Repeat, gender Male, age 6-8 weeks
Conditions: in vivo, po, route oral GAVAGE, vehicle 100 % WATER; for ABSOLUTE BASOPHIL / ABSOLUTE EOSINOPHIL / ABSOLUTE LYMPHOCYTE / ABSOLUTE MONOCYTE / ABSOLUTE SEGMENTED NEUTROPHIL / BASOPHIL / EOSINOPHIL / ERYTHROCYTE COUNT / HEMATOCRIT / HEMOGLOBIN / LEUKOCYTE COUNT / LYMPHOCYTE / MEAN CORPUSCULAR HEMOGLOBIN / MEAN CORPUSCULAR HEMOGLOBIN CONCENTRATION / MEAN CORPUSCULAR VOLUME / MONOCYTE / NEUTROPHIL / NUCLEATED RED BLOOD CELLS / PLATELET COUNT: tissue Blood; for ALANINE AMINOTRANSFERASE / ALBUMIN / ALKALINE PHOSPHATASE / ASPARTATE AMINOTRANSFERASE / BLOOD UREA NITROGEN / CARBON DIOXIDE / CHLORIDE / CHOLESTEROL / CREATINE PHOSPHOKINASE / CREATININE / GLUCOSE / LACTATE DEHYDROGENASE / LIPASE / PHOSPHORUS / POTASSIUM / SODIUM / TOTAL BILIRUBIN / TOTAL PROTEIN / URIC ACID: tissue Plasma
[1] = 6 mg/kg, 120 h, dose level Low, time 5 day
[2] = 414 mg/kg, 72 h, dose level High, time 3 day
[3] = 414 mg/kg, 120 h, dose level High, time 5 day

CN1CCN(C(=O)OC2c3nccnc3C(=O)N2c2ccc(Cl)cn2)CC1 (centres undefined) [ZOPICLONE]
ABSOLUTE BASOPHIL [1]: 0 CELLS/uL
ABSOLUTE EOSINOPHIL [1]: 89.67 CELLS/uL
ABSOLUTE LYMPHOCYTE [1]: 11847.67 CELLS/uL
ABSOLUTE MONOCYTE [1]: 80.67 CELLS/uL
ABSOLUTE SEGMENTED NEUTROPHIL [1]: 982 CELLS/uL
BASOPHIL [1]: 0%
EOSINOPHIL [1]: 0.67%
ERYTHROCYTE COUNT [1]: 6 x10E6/uL
HEMATOCRIT [1]: 36.37%
HEMOGLOBIN [1]: 14 G/DL
LEUKOCYTE COUNT [1]: 13 x10E3/uL
LYMPHOCYTE [1]: 91%
MEAN CORPUSCULAR HEMOGLOBIN [1]: 23.3 pg
MEAN CORPUSCULAR HEMOGLOBIN CONCENTRATION [1]: 38.5 G/DL
MEAN CORPUSCULAR VOLUME [1]: 60.6 fL
MONOCYTE [1]: 0.67%
NEUTROPHIL [1]: 7.67%
NUCLEATED RED BLOOD CELLS [1]: 0 /100WBC
PLATELET COUNT [1]: 827.33 x10E3/uL
ALANINE AMINOTRANSFERASE [1]: 51.67 u/L
ALBUMIN [1]: 4.07 G/DL
ALKALINE PHOSPHATASE [1]: 386.67 u/L
ASPARTATE AMINOTRANSFERASE [1]: 91.33 u/L
BLOOD UREA NITROGEN [1]: 15 mg/dL
CARBON DIOXIDE [1]: 32 mmol/L
CHLORIDE [1]: 101.67 MEQ/L
CHOLESTEROL [1]: 61.33 mg/dL
CREATINE PHOSPHOKINASE [1]: 428.33 u/L
CREATININE [1]: 0.13 mg/dL
GLUCOSE [1]: 151.33 mg/dL
LACTATE DEHYDROGENASE [1]: 157.67 u/L
LIPASE [1]: 10 u/L
PHOSPHORUS [1]: 12.2 mg/dL
POTASSIUM [1]: 6.32 MEQ/L
SODIUM [1]: 146.2 MEQ/L
TOTAL BILIRUBIN [1]: 0.17 mg/dL
TOTAL PROTEIN [1]: 6.03 G/DL
URIC ACID [1]: 1.17 mg/dL
ABSOLUTE BASOPHIL [2]: 0 CELLS/uL
ABSOLUTE EOSINOPHIL [2]: 54 CELLS/uL
ABSOLUTE LYMPHOCYTE [2]: 11865 CELLS/uL
ABSOLUTE MONOCYTE [2]: 279 CELLS/uL
ABSOLUTE SEGMENTED NEUTROPHIL [2]: 4168.67 CELLS/uL
BASOPHIL [2]: 0%
EOSINOPHIL [2]: 0.33%
ERYTHROCYTE COUNT [2]: 5.87 x10E6/uL
HEMATOCRIT [2]: 36.97%
HEMOGLOBIN [2]: 14.13 G/DL
LEUKOCYTE COUNT [2]: 16.37 x10E3/uL
LYMPHOCYTE [2]: 72.33%
MEAN CORPUSCULAR HEMOGLOBIN [2]: 24.1 pg
MEAN CORPUSCULAR HEMOGLOBIN CONCENTRATION [2]: 38.23 G/DL
MEAN CORPUSCULAR VOLUME [2]: 63.03 fL
MONOCYTE [2]: 1.67%
NEUTROPHIL [2]: 25.67%
NUCLEATED RED BLOOD CELLS [2]: 0 /100WBC
PLATELET COUNT [2]: 1420.33 x10E3/uL
ALANINE AMINOTRANSFERASE [2]: 76 u/L
ALBUMIN [2]: 3.9 G/DL
ALKALINE PHOSPHATASE [2]: 416.33 u/L
ASPARTATE AMINOTRANSFERASE [2]: 81 u/L
BLOOD UREA NITROGEN [2]: 15.67 mg/dL
CARBON DIOXIDE [2]: 31.67 mmol/L
CHLORIDE [2]: 101.33 MEQ/L
CHOLESTEROL [2]: 79 mg/dL
CREATINE PHOSPHOKINASE [2]: 490.67 u/L
CREATININE [2]: 0.17 mg/dL
GLUCOSE [2]: 142.33 mg/dL
LACTATE DEHYDROGENASE [2]: 208 u/L
LIPASE [2]: 10.67 u/L
PHOSPHORUS [2]: 9.37 mg/dL
POTASSIUM [2]: 5.75 MEQ/L
SODIUM [2]: 145.07 MEQ/L
TOTAL BILIRUBIN [2]: 0.13 mg/dL
TOTAL PROTEIN [2]: 5.97 G/DL
URIC ACID [2]: 0.43 mg/dL
ABSOLUTE BASOPHIL [3]: 0 CELLS/uL
ABSOLUTE EOSINOPHIL [3]: 34 CELLS/uL
ABSOLUTE LYMPHOCYTE [3]: 13648.67 CELLS/uL
ABSOLUTE MONOCYTE [3]: 500 CELLS/uL
ABSOLUTE SEGMENTED NEUTROPHIL [3]: 2484 CELLS/uL
BASOPHIL [3]: 0%
EOSINOPHIL [3]: 0.33%
ERYTHROCYTE COUNT [3]: 6.38 x10E6/uL
HEMATOCRIT [3]: 38.3%
HEMOGLOBIN [3]: 14.7 G/DL
LEUKOCYTE COUNT [3]: 16.67 x10E3/uL
LYMPHOCYTE [3]: 81%
MEAN CORPUSCULAR HEMOGLOBIN [3]: 23.07 pg
MEAN CORPUSCULAR HEMOGLOBIN CONCENTRATION [3]: 38.37 G/DL
MEAN CORPUSCULAR VOLUME [3]: 60.13 fL
MONOCYTE [3]: 3%
NEUTROPHIL [3]: 15.67%
NUCLEATED RED BLOOD CELLS [3]: 0 /100WBC
PLATELET COUNT [3]: 1154.67 x10E3/uL
ALANINE AMINOTRANSFERASE [3]: 76.67 u/L
ALBUMIN [3]: 3.57 G/DL
ALKALINE PHOSPHATASE [3]: 365 u/L
ASPARTATE AMINOTRANSFERASE [3]: 80.33 u/L
BLOOD UREA NITROGEN [3]: 15.33 mg/dL
CARBON DIOXIDE [3]: 30.33 mmol/L
CHLORIDE [3]: 102 MEQ/L
CHOLESTEROL [3]: 68 mg/dL
CREATINE PHOSPHOKINASE [3]: 261.33 u/L
CREATININE [3]: 0.22 mg/dL
GLUCOSE [3]: 118.67 mg/dL
LACTATE DEHYDROGENASE [3]: 110.33 u/L
LIPASE [3]: 11 u/L
PHOSPHORUS [3]: 11.23 mg/dL
POTASSIUM [3]: 6.36 MEQ/L
SODIUM [3]: 146.63 MEQ/L
TOTAL BILIRUBIN [3]: 0.1 mg/dL
TOTAL PROTEIN [3]: 5.73 G/DL
URIC ACID [3]: 1.53 mg/dL
